Measurements from the supplement of paper PMC10307832.

Key:
Test in all cases: relative viability (nuclei count vs DMSO), 5 days (fraction); higher = more cells survive
Olaparib + AZD7762 = compound: O=C(c1cc(Cc2n[nH]c(=O)c3ccccc23)ccc1F)N1CCN(C(=O)C2CC2)CC1 [Olaparib] + NC(=O)Nc1cc(-c2cccc(F)c2)sc1C(=O)N[C@H]1CCCNC1 [AZD7762] (partner 0.2 µM)
Summary of the method: (§1)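 The day after seeding in 1536-well plates, lung cancer cell lines were treated by pin tool with a single drug, or with a fixed anchor-drug dose together with five library-drug doses (not always all listed) in √10 steps. After 5 days, a combined fix-and-stain solution (final 0.05% Triton X-100, 1% formaldehyde, 1 ug/ml Hoechst) was added. Nuclei counted on 4× images gave relative viability as treated counts over vehicle counts, reported as the median of duplicate plates.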

Carfilzomib + Trametinib = compound: CC(C)C[C@H](NC(=O)[C@H](CCc1ccccc1)NC(=O)CN1CCOCC1)C(=O)N[C@@H](Cc1ccccc1)C(=O)N[C@@H](CC(C)C)C(=O)[C@@]1(C)CO1 [Carfilzomib] + CC(=O)Nc1cccc(-n2c(=O)n(C3CC3)c(=O)c3c(Nc4ccc(I)cc4F)n(C)c(=O)c(C)c32)c1 [Trametinib] (partner 0.02 µM)
Summary of the method: as §1

Crizotinib + Pictilisib = compound: C[C@@H](Oc1cc(-c2cnn(C3CCNCC3)c2)cnc1N)c1c(Cl)ccc(F)c1Cl [Crizotinib] + CS(=O)(=O)N1CCN(Cc2cc3nc(-c4cccc5[nH]ncc45)nc(N4CCOCC4)c3s2)CC1 [Pictilisib] (partner 1 µM)
Summary of the method: as §1

Crizotinib + OSI-027 = compound: C[C@@H](Oc1cc(-c2cnn(C3CCNCC3)c2)cnc1N)c1c(Cl)ccc(F)c1Cl [Crizotinib] + COc1cccc2cc(-c3nc([C@H]4CC[C@H](C(=O)O)CC4)n4ncnc(N)c34)[nH]c12 [OSI-027] (partner 0.5 µM)
Summary of the method: as §1

| Cell Line | relative viability (Olaparib + AZD7762; first compound 0.08 µM) | relative viability (Olaparib + AZD7762; first compound 2.53 µM) | relative viability (Olaparib + AZD7762; first compound 8 µM) | relative viability (Carfilzomib + Trametinib; first compound 0.001 µM) | relative viability (Carfilzomib + Trametinib; first compound 0.003162 µM) | relative viability (Carfilzomib + Trametinib; first compound 0.01 µM) | relative viability (Carfilzomib + Trametinib; first compound 0.03162 µM) | relative viability (Carfilzomib + Trametinib; first compound 0.1 µM) | relative viability (Crizotinib + Pictilisib; first compound 0.01 µM) | relative viability (Crizotinib + Pictilisib; first compound 0.03162 µM) | relative viability (Crizotinib + Pictilisib; first compound 0.1 µM) | relative viability (Crizotinib + Pictilisib; first compound 0.3162 µM) | relative viability (Crizotinib + Pictilisib; first compound 1 µM) | relative viability (Crizotinib + OSI-027; first compound 0.01 µM) | relative viability (Crizotinib + OSI-027; first compound 0.03162 µM) | relative viability (Crizotinib + OSI-027; first compound 0.1 µM) | relative viability (Crizotinib + OSI-027; first compound 0.3162 µM) | relative viability (Crizotinib + OSI-027; first compound 1 µM) | relative viability (Olaparib + AZD7762; first compound 0.253 µM) |
| --- | --- | --- | --- | --- | --- | --- | --- | --- | --- | --- | --- | --- | --- | --- | --- | --- | --- | --- | --- |
| PC-3 [JPC-3] | 0.887 | 0.866 | 0.926 | 0.77 | 0.679 | 0.706 | 0.552 | 0.279 | 0.687 | 0.804 | 0.722 | 0.705 | 0.709 | 0.786 | 0.802 | 0.76 | 0.683 | 0.745 |  |
| PC-14 | 0.4 | 0.355 | 0.205 | 0.749 | 0.672 | 0.588 | 0.0506 | 0.0646 | 0.772 | 0.775 | 0.708 | 0.8 |  | 0.826 | 0.898 | 0.8 | 0.867 | 1.03 | 0.334 |
| RERF-LC-KJ | 1.11 | 0.883 | 1.08 | 0.864 | 0.908 | 0.941 | 0.511 | 0.211 | 0.502 | 0.628 | 0.476 | 0.561 | 0.621 | 0.518 | 0.619 | 0.521 | 0.542 | 0.612 | 0.825 |
